Assay results taken from patent publication US4251520A, “Glucofuranose derivatives” (priority 1976, dated 1981).

Tests used:
[1] = test system: edema induced by carrageenan; test: Anti-inflammatory activity, carrageenin-induced oedema; format: in vivo, rat; settings: po; 500 mg/kg p.o. rat; read-out: % inhibition of edema induced by carrageenan
Text: Beginning, therefore, with D-glucose, we have prepared 1,2:5,6-di-O-isopropylidene-α-D-glucofuranose (II): [drawing 2] as well as 1,2-O-isopropylidene-α-D-glucofuranose and 1,2-O-isopropylidene-3,5,6-tri-O-benzyl-α-D-glucofuranose (1; Glen W. L., Myers G. S., Grant G. A., J. Chem. Soc., 2568/1951; (2) Meyer A. S., Reichstein T., Helv. Chim. Acta, 29, 139/1946; (3) Huber G., Rossi A., Helv. Chim. Acta, 51, 1185/1968) and have compared these compounds with (I) for anti-inflammatory activity against carrageenin-induced oedema (500 mg/kg, p.o. in rats).

[2] = test system: spasm by acetylcholine; test: Antispasmodic activity in vitro, spasm by acetylcholine
Description: (§1) Pharmacological tests were carried out to evaluate the acute toxicity, anti-inflammatory and capillary permeability action, antipyretic, analgesic and anti-spasmodic in vitro action.

[3] = Analgesic activity, protection from writhing; format: in vivo, mouse; settings: po; 500 mg/kg p.o. mouse; read-out: Analgesic activity, protection from writhing %
Description: as §1

[4] = test system: spasm by histamine; test: Antispasmodic activity in vitro, spasm by histamine
Description: as §1

[5] = test system: edema induced by dextran; test: Anti-inflammatory activity, dextran-induced edema; format: in vivo, rat; settings: po; 500 mg/kg p.o. rat; read-out: % inhibition of edema induced by dextran
Description: as §1

[6] = test system: edema induced by formalin; test: Anti-inflammatory activity, formalin-induced edema; format: in vivo, rat; settings: po; 500 mg/kg p.o. rat; read-out: % inhibition of edema induced by formalin
Description: as §1

[7] = in vivo; settings: mouse, in vivo, po
[8] = Analgesic activity, hot plate test; format: in vivo, mouse; settings: po; 500 mg/kg p.o. mouse; hot plate test; read-out: Analgesic activity, increase of reaction time %
Description: as §1

[9] = test system: capillary permeability; test: Capillary permeability test; settings: 500 mg/kg p.o. mouse
Description: as §1

[10] = test system: oedema induced by carrageenin, dextran and formalin; test: Anti-inflammatory activity tests (oedema by carrageenin, dextran and formalin); format: in vivo; settings: rat
Description: as §1

[11] = test system: granuloma; test: Granuloma cotton pellet test; settings: for inhibition in vivo at 200 mg/kg: Rattus norvegicus, po, read-out: % inhibition of granuloma
Description: as §1

[12] = Antipyretic activity; format: in vivo, rat; settings: for Antipyretic activity (potency in comparison with aspirin = 100): 400 mg/kg p.o. rat; for Antipyretic action (in words): rat, in vivo
Description: as §1

SMILES	inhibition in vivo at 500 mg/kg [1] [%]	Antispasmodic activity in vitro, ED50, inhib. of spasm by acetylcholine [2] [µg/mL]	inhibition in vivo at 500 mg/kg [3] [%]	Antispasmodic activity in vitro, ED50, inhib. of spasm by histamine [4] [µg/mL]	inhibition in vivo at 500 mg/kg [5] [%]	inhibition in vivo at 500 mg/kg [6] [%]	LD50 [7] [mg/kg]	change in vivo at 500 mg/kg [8] [%]	Capillary permeability, decrease % [9] [%]	Anti-inflammatory potency compared with aspirin and phenylbutazone (in words) [10]	Inhibition of oedema induced by carrageenin, dextran and formalin, compared with (I) (in words) [10]	inhibition in vivo at 200 mg/kg [11] [%]	Antipyretic activity (potency in comparison with aspirin = 100) [12] [%]	Antipyretic action (in words) [12]	Inhibitory activity in the granuloma cotton pellet test (in words) ([11]; rat, in vivo)	Inhibition of spasms induced by histamine (in words) [4]	Activity against spasms produced by acetylcholine (in words) [2]
COC1C(C2COC(C)(C)O2)OC2OC(C)(C)OC21 (centres unmarked) [III]	51	> 100	20	100	35	25	2000	20	37	as potent as or more potent than aspirin and phenylbutazone	clearly more active than (I)	0	70	retained			
CCOC1C(C2COC(C)(C)O2)OC2OC(C)(C)OC21 (centres unmarked) [IV]	37	> 100	0	150	14	33	2000	30	42				31				
CCCCCOC1C(C2COC(C)(C)O2)OC2OC(C)(C)OC21 [VII, 3-n-Pentyl-1,2:5,6-di-O-isopropylidene-α-D-glucofuranose]	62	> 100	20	> 100	31	48	4000	0	4	as potent as or more potent than aspirin and phenylbutazone	clearly more active than (I)	19	0		some inhibitory activity		
CCCCOC1C(C2COC(C)(C)O2)OC2OC(C)(C)OC21 (centres unmarked) [VI]	33	> 100	0	> 100	13	24	3000	40	57				51	retained			
CCCOC1C(C2COC(C)(C)O2)OC2OC(C)(C)OC21 (centres unmarked) [V]	28	> 100	20	> 100	0	0	1000	10	53				37				
CC1(C)OCC(C2OC3OC(C)(C)OC3C2OCC(=O)O)O1 [XIII, 3-Carboxymethyl-1,2:5,6-di-O-isopropylidene-α-D-glucofuranose]	10	> 100	0	> 100	4	18	> 4000	0	14				5				
CN(C)CCOC1C(C2COC(C)(C)O2)OC2OC(C)(C)OC21 [XIV, 3-(2-Dimethylaminoethyl)-1,2:5,6-di-O-isopropylidene-α-D-glucofuranose]	62	> 100	20	100	54	28	1500	10	35			0	43	retained			
CC1(C)OCC(C2OC3OC(C)(C)OC3C2OCCN2CCCCC2)O1 (centres unmarked) [XIX]	64				56	28	> 1000		17				55	retained			
CC1(C)OCC(C2OC3OC(C)(C)OC3C2OCCN2CCCC2)O1 (centres unmarked) [XVIII]	68	> 100	0	100	64	38	1500	10	50			0	0				
CC(C)N(CCOC1C(C2COC(C)(C)O2)OC2OC(C)(C)OC21)C(C)C (centres unmarked) [XVII]	73	100	40	70	35	32	1000	0	32			0	15				
CCCN(CCC)CCOC1C(C2COC(C)(C)O2)OC2OC(C)(C)OC21 (centres unmarked) [XVI]	23	100	0	12	41	24	750	0				0	29			inhibited spasms induced by histamine at relatively low concentrations	
CCN(CC)CCOC1C(C2COC(C)(C)O2)OC2OC(C)(C)OC21 (centres unmarked) [XV]	60	> 100	0	100	58	4	3000	10	20			0	8				
CC1(C)OCC(C2OC3OC(C)(C)OC3C2OCCN(Cc2ccccc2)Cc2ccccc2)O1 (centres unmarked) [XXI]	29		60		17	19	> 2000	0					25				
CC1(C)OCC(C2OC3OC(C)(C)OC3C2OCCN2CCOCC2)O1 (centres unmarked) [XX]	59	> 100	0	> 100	65	43	1500	40	58			0	14				
C#CCOC1C(C2COC(C)(C)O2)OC2OC(C)(C)OC21 (centres unmarked) [X]	53	50	20	50	65	36	1500	0		as potent as or more potent than aspirin and phenylbutazone	clearly more active than (I)	0	107	retained			moderately active
